The assay addresses T1, human TRPA1 (Homo sapiens, UniProt O75762).
T1 construct: expressed in transfected cells; host or cells: Human embryonic kidney-derived 293T cells, transiently transfected with the pcDNA3.1/zeo(+) human TRPA1 plasmid
Nature of the assay: Measurement of TRPA1 antagonist activity (intracellular calcium increase, FLIPR, allylisothiocyanate stimulation). Type of assay: cell-based. Particulars: read-out: antagonism hTRPA1. An outline of the steps: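 IC50 derives from a sigmoid fit of inhibition of the 5-min FLIPR fluorescence change evoked by 20 μM allylisothiocyanate, normalized between agonist and buffer responses. Test substance, diluted in HBSS/20 mM HEPES pH 7.2 plus 0.1% BSA, was applied 10 min beforehand at room temperature to Calcium4-loaded 293T cells transiently expressing human TRPA1.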

The mark [1] stands for this setting: 293T cells transfected with human TRPA1, allylisothiocyanate 20 μM, concentration for 50% inhibitory rate.
[2] abbreviates: allylisothiocyanate 20 μM stimulation, FLIPR calcium assay.

Where two headings read alike, the source gives them in different places.

T1 sequence (O75762 whole entry): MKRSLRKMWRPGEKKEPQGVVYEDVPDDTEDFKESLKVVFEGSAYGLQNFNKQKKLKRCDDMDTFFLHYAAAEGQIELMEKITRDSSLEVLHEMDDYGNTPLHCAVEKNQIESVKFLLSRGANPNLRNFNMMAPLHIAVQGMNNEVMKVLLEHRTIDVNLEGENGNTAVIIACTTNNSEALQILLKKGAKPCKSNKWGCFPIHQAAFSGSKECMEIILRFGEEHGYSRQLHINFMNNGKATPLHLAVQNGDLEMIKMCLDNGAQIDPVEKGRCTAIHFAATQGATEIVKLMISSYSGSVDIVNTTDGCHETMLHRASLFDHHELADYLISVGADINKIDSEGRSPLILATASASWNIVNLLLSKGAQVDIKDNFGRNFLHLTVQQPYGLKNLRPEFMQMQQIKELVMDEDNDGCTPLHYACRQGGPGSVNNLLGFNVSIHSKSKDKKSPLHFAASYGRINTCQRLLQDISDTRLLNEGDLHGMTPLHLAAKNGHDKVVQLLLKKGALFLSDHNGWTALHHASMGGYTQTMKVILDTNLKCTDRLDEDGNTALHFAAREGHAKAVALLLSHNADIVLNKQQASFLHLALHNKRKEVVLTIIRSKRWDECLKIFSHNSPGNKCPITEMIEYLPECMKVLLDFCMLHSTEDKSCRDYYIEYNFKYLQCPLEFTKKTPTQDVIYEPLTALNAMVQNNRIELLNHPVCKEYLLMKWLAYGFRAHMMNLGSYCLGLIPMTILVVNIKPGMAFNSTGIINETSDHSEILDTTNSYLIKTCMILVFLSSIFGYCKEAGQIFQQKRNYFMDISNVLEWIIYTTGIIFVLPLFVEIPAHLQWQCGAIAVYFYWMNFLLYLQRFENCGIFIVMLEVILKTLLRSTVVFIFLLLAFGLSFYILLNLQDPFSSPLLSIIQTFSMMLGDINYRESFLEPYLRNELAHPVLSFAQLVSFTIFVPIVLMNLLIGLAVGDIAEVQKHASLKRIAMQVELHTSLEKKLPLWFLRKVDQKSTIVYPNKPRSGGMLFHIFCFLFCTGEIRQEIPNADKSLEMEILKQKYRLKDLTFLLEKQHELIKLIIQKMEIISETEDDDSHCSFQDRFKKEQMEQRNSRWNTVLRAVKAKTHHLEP

With `CC(NC(=O)[C@@H]1CCCN1S(=O)(=O)c1ccc(Cl)s1)c1ccc(COc2ccccc2)cc1` (stereo partly drawn) [Example 72], the IC50 under setting [1] was determined as 3800 nM.
In the case of `O=C(NCc1ccc(COc2ccccc2)cc1Cl)[C@@H]1CCCN1S(=O)(=O)c1ccc(Cl)s1` [Example 73], the IC50 under setting [1] stood at 150 nM.
Same read-out and setting: the result for `O=C(NCc1ccc(COc2ccc(C(F)(F)F)cc2)cc1Cl)[C@@H]1CCCN1S(=O)(=O)c1ccc(Cl)s1` [Example 74] reads 180 nM; that for `O=C(NCc1ccc(COc2cccc(C(F)(F)F)c2)cc1Cl)[C@@H]1CCCN1S(=O)(=O)c1ccc(Cl)s1` [Example 75], 140 nM.
Still for that read-out and setting: the value for `O=C(NCc1ccc(COc2ccccc2)cc1C(F)(F)F)[C@@H]1CCCN1S(=O)(=O)c1ccc(Cl)s1` [Example 76] was 160 nM.
On the same count and under the same terms, the result for `O=C(NCc1ccc(COc2ccc(C(F)(F)F)cc2)cc1C(F)(F)F)[C@@H]1CCCN1S(=O)(=O)c1ccc(Cl)s1` [Example 77] reads 100 nM.
Turning to `O=C(NCc1ccc(COc2cccc(C(F)(F)F)c2)cc1C(F)(F)F)[C@@H]1CCCN1S(=O)(=O)c1ccc(Cl)s1` [Example 78], under setting [1], the IC50 stood at 120 nM.
Same read-out and setting: the result for `O=C(NCc1ccccc1COc1ccccc1)[C@@H]1CCCN1S(=O)(=O)c1ccc(Cl)s1` [Example 79] reads 2200 nM; that for `O=C(NCc1ccccc1COc1ccc(C(F)(F)F)cc1)[C@@H]1CCCN1S(=O)(=O)c1ccc(Cl)s1` [Example 80], 270 nM.
On the same count and under the same terms, the result for `O=C(NCc1ccccc1COc1cccc(C(F)(F)F)c1)[C@@H]1CCCN1S(=O)(=O)c1ccc(Cl)s1` [Example 81] reads 580 nM; that for `O=C(NCc1ccc(COc2ccccc2)cc1)[C@@H]1CCCN1S(=O)(=O)c1ccc(F)cc1` [Example 82, (2S)-1-[(4-fluorophenyl)sulfonyl]-N-{[4-(phenoxymethyl)phenyl]methyl}pyrrolidine-2-carboxamide], 1200 nM.
Consider `O=C(NCc1ccc(COc2ccccc2)cc1)[C@@H]1C=CCN1S(=O)(=O)c1ccc(Cl)s1` [Example 83], for which the IC50 under setting [1] stood at 430 nM.
Still for that read-out and setting: the value for `O=C(NCc1ccc(COc2ccccc2)cc1)[C@@H]1CCCN1S(=O)(=O)c1ccc(F)c(F)c1` [Example 84] was 1100 nM.
Take `O=C(NCc1ccc(COc2ccccc2)cc1)[C@@H]1CCCN1S(=O)(=O)c1cccc(F)c1` [Example 85]: the IC50 under setting [1] turned out to be 3500 nM.
Regarding `O=C(NCc1ccc(COc2ccccc2)cc1)[C@@H]1CCCN1S(=O)(=O)c1cccs1` [Example 86], the IC50 under setting [1] amounted to 7000 nM.
The same measure, in the same setting: the value for `O=C(NCc1ccc(COc2ccccc2)cc1)[C@@H]1CC(O)CN1S(=O)(=O)c1ccc(Cl)s1` (stereo partly drawn) [Example 87] was 7700 nM; that for `O=C(NCc1nc(COc2ccc(C(F)(F)F)cc2)cs1)[C@@H]1CCCN1S(=O)(=O)c1ccc(Cl)s1` [Example 88] was 370 nM.
Turning to `O=C(NCc1nc(COc2cccc(C(F)(F)F)c2)cs1)[C@@H]1CCCN1S(=O)(=O)c1ccc(Cl)s1` [Example 89], the IC50 under setting [1] worked out at 340 nM.
`O=C(NCc1nc(COc2ccccc2C(F)(F)F)cs1)[C@@H]1CCCN1S(=O)(=O)c1ccc(Cl)s1` [Example 90]: the IC50 under setting [1] worked out at 150 nM.
The same measure, in the same setting: the result for `O=C(NCc1ccc(OCc2ccccc2)cc1)[C@@H]1CCCN1S(=O)(=O)c1ccc(Cl)s1` [Example 91] reads 94 nM; that for `O=C(NCc1ccc(OCc2ccc(C(F)(F)F)cc2)cc1)[C@@H]1CCCN1S(=O)(=O)c1ccc(Cl)s1` [Example 92], 110 nM; that for `O=C(NCc1ccc(OCc2cccc(C(F)(F)F)c2)cc1)[C@@H]1CCCN1S(=O)(=O)c1ccc(Cl)s1` [Example 93], 4200 nM.
On to `O=C(NCc1ccc(OCc2ccccc2C(F)(F)F)cc1)[C@@H]1CCCN1S(=O)(=O)c1ccc(Cl)s1` [Example 94], for which the IC50 under setting [1] was found to be 370 nM.
On the same count and under the same terms, the value for `O=C(NCc1cccc(OCc2ccccc2)c1)[C@@H]1CCCN1S(=O)(=O)c1ccc(Cl)s1` [Example 95] was 22 nM; that for `O=C(NCc1cccc(OCc2ccc(C(F)(F)F)cc2)c1)[C@@H]1CCCN1S(=O)(=O)c1ccc(Cl)s1` [Example 96] was 19 nM.
On the same count and under the same terms, the result for `O=C(NCc1cccc(OCc2ccc(OC(F)(F)F)cc2)c1)[C@@H]1CCCN1S(=O)(=O)c1ccc(Cl)s1` [Example 97] reads 30 nM; that for `O=C(NCc1cccc(OCc2ccc(Cl)cc2)c1)[C@@H]1CCCN1S(=O)(=O)c1ccc(Cl)s1` [Example 98], 10 nM; that for `O=C(NCc1cccc(OCc2ccc(F)cc2)c1)[C@@H]1CCCN1S(=O)(=O)c1ccc(Cl)s1` [Example 99], 12 nM.
`O=C(NCc1cccc(OCc2cccc(C(F)(F)F)c2)c1)[C@@H]1CCCN1S(=O)(=O)c1ccc(Cl)s1` [Example 100]: the IC50 under setting [1] is 8.9 nM.
On to `O=C(NCc1cccc(OCc2cccc(OC(F)(F)F)c2)c1)[C@@H]1CCCN1S(=O)(=O)c1ccc(Cl)s1` [Example 101], for which the IC50 under setting [1] came to 16 nM.
On to `O=C(NCc1cccc(OCc2cccc(Cl)c2)c1)[C@@H]1CCCN1S(=O)(=O)c1ccc(Cl)s1` [Example 102], for which the IC50 under setting [1] was 15 nM.
As to `O=C(NCc1cccc(OCc2cccc(F)c2)c1)[C@@H]1CCCN1S(=O)(=O)c1ccc(Cl)s1` [Example 103], the IC50 under setting [1] came out at 15 nM.
Take `O=C(NCc1cccc(OCc2ccccc2C(F)(F)F)c1)[C@@H]1CCCN1S(=O)(=O)c1ccc(Cl)s1` [Example 104]: the IC50 under setting [1] worked out at 80 nM.
`O=C(NCc1ccc(F)c(OCc2ccc(C(F)(F)F)cc2)c1F)[C@@H]1CCCN1S(=O)(=O)c1ccc(Cl)s1` [Example 105]: the IC50 under setting [1] was 130 nM.
Still for that read-out and setting: the result for `O=C(NCc1c(F)ccc(OCc2ccc(C(F)(F)F)cc2)c1Cl)[C@@H]1CCCN1S(=O)(=O)c1ccc(Cl)s1` [Example 106] reads 1200 nM.
On the same count and under the same terms, the value for `O=C(NCc1cccc(OCc2ccccc2)c1)[C@@H]1C=CCN1S(=O)(=O)c1ccc(Cl)s1` [Example 107, (2S)—N-[(3-benzyloxyphenyl)methyl]-1-(5-chlorothiophene-2-sulfonyl)-2,5-dihydropyrrole-2-carboxamide] was 14 nM.
With `O=C(NCc1cccc(OCc2ccccc2)c1)[C@@H]1CCCN1S(=O)(=O)c1ccc(F)cc1` [Example 108], under setting [1], the IC50 is 66 nM.
On the same count and under the same terms, the result for `O=C(NCc1cccc(OCc2ccccc2)c1)[C@@H]1CCN1S(=O)(=O)c1ccc(Cl)s1` [Example 109] reads 120 nM; that for `O=C(NCc1cccc(OCc2ccccc2)c1)[C@@H]1CCCN1S(=O)(=O)c1ccc(F)c(F)c1` [Example 110], 76 nM.
On the same count and under the same terms, the result for `O=C(NCc1cccc(OCc2ccc(C(F)(F)F)cc2)c1)[C@@H]1C=CCN1S(=O)(=O)c1ccc(F)cc1` [Example 111] reads 24 nM.
The same measure, in the same setting: the value for `O=C(NCc1cccc(OCc2ccc(C(F)(F)F)cc2)c1)[C@@H]1CCN1S(=O)(=O)c1ccc(F)cc1` [Example 112] was 230 nM.
Take `O=C(NCc1cccc(OCc2ccc(C(F)(F)F)cc2)c1)[C@@H]1CCCN1S(=O)(=O)c1ccc(Cl)cc1` [Example 113]: the IC50 under setting [1] was 71 nM.
On to `O=C(NCc1cccc(Oc2ccnc(C(F)(F)F)c2)c1)[C@@H]1CCCN1S(=O)(=O)c1ccc(F)cc1` [Example 114, (2S)-1-(4-fluorophenyl)sulfonyl-N-[[3-[[2-(trifluoromethyl)-4-pyridyl]oxy]phenyl]methyl]pyrrolidine-2-carboxamide], for which the IC50 under setting [2] was 570 nM.
Same read-out and setting: the result for `O=C(NCc1cccc(Oc2ccc(C(F)(F)F)nc2)c1)[C@@H]1CCCN1S(=O)(=O)c1ccc(F)cc1` [Example 115, (2S)-1-(4-fluorophenyl)sulfonyl-N-[[3-[[6-(trifluoromethyl)-3-pyridyl]oxy]phenyl]methyl]pyrrolidine-2-carboxamide] reads 210 nM.
On the same count and under the same terms, the result for `CN(C)c1cccc(Oc2cccc(CNC(=O)[C@@H]3CCCN3S(=O)(=O)c3ccc(F)cc3)c2)c1` [Example 116, (2S)-N-[[3-[3-(dimethylamino)phenoxy]phenyl]methyl]-1-(4-fluorophenyl)sulfonyl-pyrrolidine-2-carboxamide] reads 1300 nM; that for `CN(C)c1ccc(Oc2cccc(CNC(=O)[C@@H]3CCCN3S(=O)(=O)c3ccc(F)cc3)c2)cc1` [Example 117, (2S)-N-[[3-[4-(dimethylamino)phenoxy]phenyl]methyl]-1-(4-fluorophenyl)sulfonyl-pyrrolidine-2-carboxamide], 9900 nM; that for `N#Cc1ccc(Oc2cccc(CNC(=O)[C@@H]3CCCN3S(=O)(=O)c3ccc(F)cc3)c2)cc1` [Example 118, (2S)-N-[[3-(4-cyanophenoxy)phenyl]methyl]-1-(4-fluorophenyl)sulfonyl-pyrrolidine-2-carboxamide], 270 nM.
As for `CC(C)(C)c1ccc(Oc2cccc(CNC(=O)[C@@H]3CCCN3S(=O)(=O)c3ccc(F)cc3)c2)cc1` [Example 119, (2S)-N-[[3-(4-tert-butylphenoxy)phenyl]methyl]-1-(4-fluorophenyl)sulfonyl-pyrrolidine-2-carboxamide], the IC50 under setting [2] amounted to 1000 nM.
On to `O=C(NCc1cccc(OCc2ccc(Cl)cc2)c1)[C@@H]1CCCN1S(=O)(=O)c1ccc(F)cc1` [Example 120, (2S)-N-[[3-[(4-chlorophenyl)methoxy]phenyl]methyl]-1-(4-fluorophenyl)sulfonyl-pyrrolidine-2-carboxamide], for which the IC50 under setting [2] was found to be 17 nM.
Regarding `O=C(NCc1cccc(OCc2ccc(F)cc2)c1)[C@@H]1CCCN1S(=O)(=O)c1ccc(F)cc1` [Example 121, (2S)-N-[[3-[(4-fluorophenyl)methoxy]phenyl]methyl]-1-(4-fluorophenyl)sulfonyl-pyrrolidine-2-carboxamide], under setting [2], the IC50 was found to be 31 nM.
Same read-out and setting: the result for `CC(C)(C)c1ccc(COc2cccc(CNC(=O)[C@@H]3CCCN3S(=O)(=O)c3ccc(F)cc3)c2)cc1` [Example 122] reads 440 nM.

Source of the values: patent publication US20150284375A1 (AJINOMOTO CO., INC., priority 2012, published 2015).
